Test results taken from US20170280720A1, “ARGININE […] INHIBITORS AND USES THEREOF” (EPIZYME, INC., priority 2014, published 2017).

Each compound was assayed against T1, human PRMT1 (Homo sapiens, UniProt Q99873) (assay: PRMT1 biochemical assay (3H-SAM Flashplate, peptide substrate)). Settings: read-out: PRMT1_ IC50.
T1 construct: GST-tagged PRMT1; made in house; host or cells: High Five insect cells (baculovirus, pFastBacI)
T1 sequence (Q99873 with tags, fused parts or gaps): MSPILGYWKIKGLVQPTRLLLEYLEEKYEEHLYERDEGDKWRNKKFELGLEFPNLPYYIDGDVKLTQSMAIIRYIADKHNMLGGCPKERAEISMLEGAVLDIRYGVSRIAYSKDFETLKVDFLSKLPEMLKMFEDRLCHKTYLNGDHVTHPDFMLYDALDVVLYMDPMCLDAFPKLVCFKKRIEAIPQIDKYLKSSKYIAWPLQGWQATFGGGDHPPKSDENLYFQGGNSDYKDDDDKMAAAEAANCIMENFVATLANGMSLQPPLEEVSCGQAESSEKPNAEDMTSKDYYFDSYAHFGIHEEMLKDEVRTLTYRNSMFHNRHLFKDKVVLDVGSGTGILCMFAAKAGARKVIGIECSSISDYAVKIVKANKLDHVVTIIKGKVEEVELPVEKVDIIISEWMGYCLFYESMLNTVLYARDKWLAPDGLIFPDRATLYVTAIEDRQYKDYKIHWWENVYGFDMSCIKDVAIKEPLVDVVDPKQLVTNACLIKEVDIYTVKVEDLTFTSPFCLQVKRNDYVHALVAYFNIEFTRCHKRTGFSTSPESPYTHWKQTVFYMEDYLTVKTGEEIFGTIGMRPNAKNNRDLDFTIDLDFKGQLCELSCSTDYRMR
Method in brief: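 FLAG-tagged full-length human PRMT1 (0.5 nM, GST-tagged, insect-cell expressed) preincubated 30 min at RT with compound, then biotinylated histone H4 36-50 peptide (20 nM) plus 200 nM 3H-SAM and 1.5 uM SAM in Bicine pH 7.6, 2% DMSO. 3H-methylated peptide captured on streptavidin Flashplate; IC50 from 3/4-parameter fit.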
With `CNCCN(C)Cc1cccc(-c2cnc3c(c2)OCC(=O)N3)c1` [Compound 355] the IC50 was 0.512 µM.
With `COc1cccc(CNC(=O)c2cncc(-c3ccc(CNCCN)cc3)c2)c1` [Compound 356] the IC50 was 0.755 µM.
In the case of `NCCNCc1ccc(-c2cnc3c(c2)OCC(=O)N3)cc1` [Compound 358], the IC50 is reported as 0.0785 µM.
